Laboratory results from patent US5508437A, “Analogs of tyrosine sulfate or tyrosine phosphate containing peptides” (Hoffmann-La Roche Inc., priority 1993, dated 1996).
Like-named read-outs stand apart in the source and are kept apart here. Starred links: 1 amine or outer side, 2 acyl side, 3 side chain; linkers in the order of their positions; H or OH if unused. Positions of bridges follow the written chain, without caps; N, C: chain ends. Non-standard residues stand in square brackets, D forms with d. Residues, ends and D or L forms follow the SMILES beside them. ξ: configuration not given here. *: point of attachment. Phe(4-tetrazol-5-yl) = N[C@@H](Cc1ccc(-c2nnn[nH]2)cc1)C(=O)O; Propanoyl(3-(4-HOOCCH2-Ph)) = O=C(O)Cc1ccc(CCC(=O)*)cc1; X15 = O=C([C@@H](Cc1ccc(-c2nn[nH]n2)cc1)N[*:1])[*:2]; X13 = O=C(O)C(F)(F)c1ccc(CC(N[*:1])C(=O)[*:2])cc1; X3 = CCOC(=O)Cc1ccc(C[C@@H](N[*:1])C(=O)[*:2])cc1; X5 = CCOC(=O)Cc1ccc(C[C@H](N[*:1])C(=O)[*:2])cc1; X7 = O=C(C(Cc1ccc(-c2nn[nH]n2)cc1)N[*:1])[*:2]; X8 = O=C(C(Cc1ccc(Cc2nn[nH]n2)cc1)N[*:1])[*:2]; X12 = O=C(O)Cc1cccc(CC(N[*:1])C(=O)[*:2])c1; X1 = O=C(O)Cc1ccc(CC(N[*:1])C(=O)[*:2])cc1; X14 = O=C(O)c1cccc(CC(N[*:1])C(=O)[*:2])c1; ξPhe(4-COOH) = NC(Cc1ccc(C(=O)O)cc1)C(=O)O; X16 = O=C(CCc1ccc(-c2nnn[nH]2)cc1)*; NMeF = CN[C@@H](Cc1ccccc1)C(=O)O; Nle = CCCC[C@H](N)C(=O)O

Legend:
[1] = biological target: T1, rat pancreas (3H-CCK-8-(SO3 H) receptor binding) (Rattus norvegicus, UniProt P30551); test: In vitro receptor binding assay, 3H-CCK-8-(SO3H), rat pancreas homogenate
T1 construct: pancreas approximately 0.100 mg protein in 1 mL final volume; from tissue; host or cells: rat pancreas membrane homogenate
T1 sequence (P30551 1-444): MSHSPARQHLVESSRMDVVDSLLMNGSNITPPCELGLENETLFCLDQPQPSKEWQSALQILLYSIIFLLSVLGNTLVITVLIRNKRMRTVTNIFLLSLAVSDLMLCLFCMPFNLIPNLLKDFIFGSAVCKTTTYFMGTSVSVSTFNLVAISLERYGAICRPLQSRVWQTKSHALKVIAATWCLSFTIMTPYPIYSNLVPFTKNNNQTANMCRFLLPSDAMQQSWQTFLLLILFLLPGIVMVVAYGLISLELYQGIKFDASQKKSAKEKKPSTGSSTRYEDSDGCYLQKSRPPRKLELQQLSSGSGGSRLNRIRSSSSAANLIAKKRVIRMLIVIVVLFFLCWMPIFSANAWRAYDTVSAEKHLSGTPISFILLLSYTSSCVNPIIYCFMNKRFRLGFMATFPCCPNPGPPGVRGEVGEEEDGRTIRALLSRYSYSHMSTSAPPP
Description: (§1) Frozen bovine striatum (approx. 5 g) or fresh rat pancreas (approx. 5 g) cleaned of fat and extraneous tissue were homogenized in HEPES buffer #1 (10 mM HEPES+130 mM NaCl+5 mM MgCl2, pH 7.4) using 35 parts buffer per 1 part tissue on a wet weight/volume basis (approx. 175 mL). The tissue was homogenized 2×for approx. 15 sec. at 0° C. using a Polytron homogenizer at a setting of 6. The tissue was isolated by centrifugation at 48,000× g for 10 min at 0° C. The resulting tissue pellet was resuspended in HEPES buffer #2 (10 mM HEPES+130 mM NaCl+5 mM MgCl2 +1 mg/L phenylmethanasulfonyl fluoride (PMSF)+200 mg/L Bacitracin): 1 part striatal tissue (original wet weight) per 80 parts buffer and 1 part pancreas tissue (original wet weight) per 500 to 1000 parts buffer.
(§2) Incubation was initiated by combining various concentrations of native CCK-8 or peptides of the invention with ^3 H-CCK-8-(SO3 H) (final conc.=0.15 nM) and tissue homogenate (striatum approximately 0.26 mg protein in 2 mL final volume; pancreas approximately 0.100 mg protein in 1 mL final volume). Samples were incubated for 30 min at 25° C. and the incubation terminated by pouring the mixture onto a pre-wetted Whatman GF/B filter on a Sandbeck Vacuum Filtration Manifold. The incubation tubes were washed with 2×3 mL of ice-cold HEPES Buffer #2 and the wash filtered through the GF/B filter. The filter was air dried for 10 min and then placed in a scintillation vial with 12 mL of DuPont/NEN Aquasol scintillation cocktail. The vials were shaken overnight and then counted using a liquid scintillation spectrometer. Non-specific binding was determined in the presence of 1 micromolar native CCK-8 and subtracted from all samples to determine specific binding. The concentration of peptide necessary to inhibit 50% of total specific H-CCK-8-(SO3 H) binding (IC50 value) was determined by log-probit analysis.

[2] = biological target: T2, Bovine Striatum (3H-CCK-8-(SO3 H) receptor binding) (Bos taurus, UniProt P79266); test: In vitro receptor binding assay, 3H-CCK-8-(SO3H), bovine striatum homogenate
T2 construct: tissue homogenate (striatum approximately 0.26 mg protein in 2 mL final volume); from tissue; host or cells: bovine striatum membrane homogenate
T2 sequence (P79266 1-454): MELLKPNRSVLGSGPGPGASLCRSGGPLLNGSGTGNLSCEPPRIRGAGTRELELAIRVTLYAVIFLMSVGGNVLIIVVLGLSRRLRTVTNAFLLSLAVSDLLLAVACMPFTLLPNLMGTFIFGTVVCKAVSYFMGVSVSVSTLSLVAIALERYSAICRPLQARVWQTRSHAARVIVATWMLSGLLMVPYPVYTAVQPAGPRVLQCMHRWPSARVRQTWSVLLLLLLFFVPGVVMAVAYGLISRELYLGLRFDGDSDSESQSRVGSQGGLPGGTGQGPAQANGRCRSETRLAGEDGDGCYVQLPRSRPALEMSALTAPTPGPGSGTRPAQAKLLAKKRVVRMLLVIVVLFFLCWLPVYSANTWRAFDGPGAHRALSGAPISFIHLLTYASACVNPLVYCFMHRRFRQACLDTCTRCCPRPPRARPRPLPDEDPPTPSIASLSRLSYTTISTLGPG
Description: as §1, §2

[3] = 3H-CCK-8-(SO3H) 0.15 nM, 30 min at 25° C., rat pancreas homogenate, read-out: Rate Pancreas IC50 (concentration to inhibit 50% of specific 3H-CCK-8-(SO3H) binding)
[4] = 3H-CCK-8-(SO3H) 0.15 nM, 30 min at 25° C., bovine striatum homogenate, read-out: Bovine Striatum IC50 (concentration to inhibit 50% of specific 3H-CCK-8-(SO3H) binding)

Structure (SMILES)	IC50 [1, 3]	IC50 [2, 4]	IC50 [1]	IC50 [2]
CSCC[C@H](NC(=O)[C@H](Cc1ccc(OS(=O)(=O)O)cc1)NC(=O)[C@@H](N)CC(=O)O)C(=O)NCC(=O)N[C@@H](Cc1c[nH]c2ccccc12)C(=O)N[C@@H](CCSC)C(=O)N[C@@H](CC(=O)O)C(=O)N[C@@H](Cc1ccccc1)C(N)=O [CCK-8, AspTyr(SO3 H)MetGlyTrpMetAspPheNH2, reference compound]	1 to 4.6 nM	1 to 3.2 nM	–	–
CSCC[C@H](NC(=O)C(Cc1cccc(C(=O)O)c1)NC(C)=O)C(=O)NCC(=O)N[C@@H](Cc1c[nH]c2ccccc12)C(=O)N[C@@H](CCSC)C(=O)N[C@@H](CC(=O)O)C(=O)N[C@@H](Cc1ccccc1)C(N)=O (stereo partly drawn) [Example 42, Ac-(D,L)Phe(3-COOH)-Met-Gly-Trp-Met-Asp-Phe-NH2] (Ac-[X14]MGWMDF-NH2)	128 nM	32 nM	–	–
CSCC[C@H](NC(=O)C(Cc1ccc(C(=O)O)cc1)NC(C)=O)C(=O)NCC(=O)N[C@@H](Cc1c[nH]c2ccccc12)C(=O)N[C@@H](CCSC)C(=O)N[C@@H](CC(=O)O)C(=O)N[C@@H](Cc1ccccc1)C(N)=O (stereo partly drawn) [Example 43, AC-(D,L)Phe(4-COOH)-Met-Gly-Trp-Met-Asp-Phe-NH2] (Ac-[ξPhe(4-COOH)]MGWMDF-NH2)	62 nM	34 nM	–	–
CSCC[C@H](NC(=O)C(Cc1ccc(CC(=O)O)cc1)NC(C)=O)C(=O)NCC(=O)N[C@@H](Cc1c[nH]c2ccccc12)C(=O)N[C@@H](CCSC)C(=O)N[C@@H](CC(=O)O)C(=O)N[C@@H](Cc1ccccc1)C(N)=O (stereo partly drawn) [Example 46, Ac-(D,L)Phe(4-CH2 COOH)-Met-Gly-Trp-Met-Asp-Phe-NH2] (Ac-[X1]MGWMDF-NH2)	3.6 nM	47 nM	–	–
CCOC(=O)Cc1ccc(C[C@@H](NC(C)=O)C(=O)N[C@@H](CCSC)C(=O)NCC(=O)N[C@@H](Cc2c[nH]c3ccccc23)C(=O)N[C@@H](CCSC)C(=O)N[C@@H](CC(=O)OCC)C(=O)N[C@@H](Cc2ccccc2)C(N)=O)cc1 [Example 49, Ac-(D)Phe(4-CH2 COOC2 H5)-Met-Gly-Trp-Met-Asp(COOC2H5)-Phe-NH2] (Ac-[X3]MGWMD(OEt)F-NH2)	1000 nM	10000 nM	–	–
CCOC(=O)Cc1ccc(C[C@H](NC(C)=O)C(=O)N[C@@H](CCSC)C(=O)NCC(=O)N[C@@H](Cc2c[nH]c3ccccc23)C(=O)N[C@@H](CCSC)C(=O)N[C@@H](CC(=O)OCC)C(=O)N[C@@H](Cc2ccccc2)C(N)=O)cc1 [Example 50, Ac-Phe(4-CH2 COOC2 H5)-Met-Gly-Trp-Met-Asp-(COOC2 H5)-Phe-NH2] (Ac-[X5]MGWMD(OEt)F-NH2)	3600 nM	10000 nM	–	–
CSCC[C@H](NC(=O)C(Cc1ccc(C(F)(F)C(=O)O)cc1)NC(C)=O)C(=O)NCC(=O)N[C@@H](Cc1c[nH]c2ccccc12)C(=O)N[C@@H](CCSC)C(=O)N[C@@H](CC(=O)O)C(=O)N[C@@H](Cc1ccccc1)C(N)=O (stereo partly drawn) [Example 52, Ac-(D,L)Phe(4-CF2 COOH)-Met-Gly-Trp-Met-Asp-Phe-NH2] (Ac-[X13]MGWMDF-NH2)	–	–	81 nM	66 nM
CSCC[C@H](NC(=O)C(Cc1ccc(-c2nn[nH]n2)cc1)NC(C)=O)C(=O)NCC(=O)N[C@@H](Cc1c[nH]c2ccccc12)C(=O)N[C@@H](CCSC)C(=O)N[C@@H](CC(=O)O)C(=O)N[C@@H](Cc1ccccc1)C(N)=O (stereo partly drawn) [Example 53, Ac-(D,L)Phe(4-tetrazole)-Met-Gly-Trp-Met-Asp-Phe-NH2] (Ac-[X7]MGWMDF-NH2)	22 nM	1.6 nM	–	–
CSCC[C@H](NC(=O)[C@H](Cc1c[nH]c2ccccc12)NC(=O)CNC(=O)[C@H](CCSC)NC(=O)[C@@H](Cc1ccc(-c2nn[nH]n2)cc1)NC(C)=O)C(=O)N[C@@H](CC(=O)O)C(=O)N[C@@H](Cc1ccccc1)C(N)=O [Example 54, Ac-(D)Phe(4-tetrazole)-Met-Gly-Trp-Met-Asp-Phe-NH2] (Ac-[X15]MGWMDF-NH2)	–	50 nM	–	–
CSCC[C@H](NC(=O)[C@H](Cc1ccc(-c2nnn[nH]2)cc1)NC(C)=O)C(=O)NCC(=O)N[C@@H](Cc1c[nH]c2ccccc12)C(=O)N[C@@H](CCSC)C(=O)N[C@@H](CC(=O)O)C(=O)N[C@@H](Cc1ccccc1)C(N)=O [Example 55, AcPhe(4-tetrazole)MetGlyTrpMetAspPheNH2] (Ac-[Phe(4-tetrazol-5-yl)]MGWMDF-NH2)	–	0.51 nM	–	–
CSCC[C@@H]1NC(=O)[C@H](Cc2c[nH]c3ccccc23)NC(=O)CNC(=O)[C@@H](NC(=O)C(Cc2ccc(CC(=O)O)cc2)NC(C)=O)CCCCNC(=O)C[C@@H](C(=O)N(C)[C@@H](Cc2ccccc2)C(N)=O)NC1=O (stereo partly drawn) [Example 56, Ac-(D,L)Phe(4-CH2 COOH)-Lys-Gly-Trp-Met-Asp-N-methyl-Phe-NH2] (Ac-[X1]KGWMD[NMeF]-NH2; lactam 2-6)	4650 nM	10000 nM	–	–
CSCC[C@H](NC(=O)C(Cc1cccc(CC(=O)O)c1)NC(C)=O)C(=O)NCC(=O)N[C@@H](Cc1c[nH]c2ccccc12)C(=O)N[C@@H](CCSC)C(=O)N[C@@H](CC(=O)O)C(=O)N[C@@H](Cc1ccccc1)C(N)=O (stereo partly drawn) [Example 58, Ac-(D,L)Phe-(3-CH2 COOH)-Met-Gly-Trp-Met-Asp-Phe-NH2] (Ac-[X12]MGWMDF-NH2)	23 nM	53 nM	–	–
CSCC[C@H](NC(=O)CCc1ccc(CC(=O)O)cc1)C(=O)NCC(=O)N[C@@H](Cc1c[nH]c2ccccc12)C(=O)N[C@@H](CCSC)C(=O)N[C@@H](CC(=O)O)C(=O)N[C@@H](Cc1ccccc1)C(N)=O [Example 59, Desamino Phe(4-CH2 -COOH)-Met-Gly-Trp-Met-Asp-Phe-NH2] ({Propanoyl(3-(4-HOOCCH2-Ph))}-MGWMDF-NH2)	57 nM	–	–	–
CSCC[C@H](NC(=O)C(Cc1ccc(Cc2nn[nH]n2)cc1)NC(C)=O)C(=O)NCC(=O)N[C@@H](Cc1c[nH]c2ccccc12)C(=O)N[C@@H](CCSC)C(=O)N[C@@H](CC(=O)O)C(=O)N[C@@H](Cc1ccccc1)C(N)=O (stereo partly drawn) [Example 60, Ac-(D,L)Phe(4-CH2 tetrazole)-Met-Gly-Trp-Met-Asp-Phe-NH2] (Ac-[X8]MGWMDF-NH2)	730 nM	340 nM	–	–
CCCC[C@H](NC(=O)C(Cc1ccc(Cc2nn[nH]n2)cc1)NC(C)=O)C(=O)NCC(=O)N[C@@H](Cc1c[nH]c2ccccc12)C(=O)N[C@@H](CCCC)C(=O)N[C@@H](CC(=O)O)C(=O)N(C)[C@@H](Cc1ccccc1)C(N)=O (stereo partly drawn) [Example 63, Ac-(D,L)Phe(4-CH2 -tetrazole)-Nle-Gly-Trp-Nle-Asp-N-methyl-Phe-NH2] (Ac-[X8][Nle]GW[Nle]D[NMeF]-NH2)	640 nM	260 nM	–	–
CSCC[C@H](NC(=O)CCc1ccc(-c2nnn[nH]2)cc1)C(=O)NCC(=O)N[C@@H](Cc1c[nH]c2ccccc12)C(=O)N[C@@H](CCSC)C(=O)N[C@@H](CC(=O)O)C(=O)N[C@@H](Cc1ccccc1)C(N)=O [Example 67, Desamino-Phe(4-tetrazole)-Met-Gly-Trp-Met-Asp-Phe-NH2] (X16-MGWMDF-NH2)	–	5.1 nM	–	–
